Assay results as given in patent publication US5869500A, “Pyridone compounds useful in treating Alzheimer's disease” (Hoffmann-La Roche Inc., priority 1996, dated 1999).

How the values were obtained:
[1] = tested on: Aβ production in HEK cells over-expressing Wild type β-APP; assay: Aβ production inhibition, sandwich-ELISA in HEK cells which over-express Wild type β-APP (SE-WT); format: cell-based, human; conditions: for Emax: HEK293, maximum inhibition plateau, read-out: SE-WT max. inhibition %
Description: The effect of test substances on the inhibition of Aβ-amyloid production can be measured in the supernatant of cell cultures of β-APP expressed cells using ELISA tests or other quantitative determination methods for β-APP degradation products. Typically, 8×10^5 cells (e.g. HEK cells, which express recombinant human β-APP variants) are plated out in each well of a culture dish having 24 wells in growth media such as e.g. OPTIMEM (Gibco) and the test compound is then added. After an incubation period of 24 to 48 hours at 37° C. in a 10% CO2 atmosphere the supernatant is removed from the cell cultures and the β-APP degradation products (e.g. Aβ or β-[…]) are determined with the aid of ELISA (or sandwich ELISA) analysis or by means of quantitative immunoprecipitation (after metabolic radiolabelling of the cell proteins). Typically, 300 μl of the cell supernatant are tested according to the state of the art for ELISA tests in culture dishes having 96 wells. In the case of sandwich ELISA for Aβ, the binding antibody can be directed against the first 16 amino acids of Aβ-peptide (e.g. 6E10 Senetek, Maryland Heights, Mo.) and the detection antibody can be directed against amino acids 17-40 or 17-42 of Aβ and carries a detection system such as e.g. peroxidase. A simple ELISA test with an antibody, e.g. 22C11 (Boehringer Mannheim), can be used as the test for […]; the second antibody can be an anti-(mouse) Ig having a detection system, such as e.g. peroxidase. The peroxidase reaction can be carried out e.g. using a TMB substrate (BioRAD) and the measurements can be carried out at 650 nm using an ELISA reading apparatus. […] SE-SFAD signifies the Aβ production inhibition measured using sandwich-ELISA in HEK cells, SFAD signifies over-expressed mutated β-APP, and SE-WT signifies the Aβ production inhibition measured using sandwich-ELISA in HEK cells which over-express Wild type β-APP. The IC50 values are based on the respective plateau of maximum inhibition.

[2] = tested on: Aβ production in HEK cells over-expressing mutated β-APP (SFAD); assay: Aβ production inhibition, sandwich-ELISA in HEK cells, over-expressed mutated β-APP (SE-SFAD); format: cell-based, human; conditions: for IC50: based on the respective plateau of maximum inhibition; for Emax: read-out: SE-SFAD max. inhibition %
Summary of the method: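 HEK cells expressing recombinant human wild-type or mutated (SFAD) β-APP treated with compound for 24 to 48 hours at 37° C, 10% CO2. IC50 based on plateau of maximum inhibition.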

[3] = Homo sapiens, HEK293, based on the respective plateau of maximum inhibition
[4] = Homo sapiens, HEK293, HEK cells
[5] = Homo sapiens, HEK293, HEK cells, maximum inhibition plateau

| Compound | IC50 [1, 3] | Emax ([1]; Homo sapiens) | IC50 [2, 4] | Emax [2, 5] | IC50 ([1]; based on the respective plateau of maximum inhibition) | SE-WT max. inhibition % ([1]; maximum inhibition plateau) | IC50 ([2]; HEK cells) | SE-SFAD max. inhibition % ([2]; HEK cells, maximum inhibition plateau) |
| --- | --- | --- | --- | --- | --- | --- | --- | --- |
| COCCCN(C)C(=O)c1cc(-c2ccccc2)c(=O)n2ccc3ccsc3c12 [Compound 18, 7-Oxo-8-phenyl-7H-thieno[2,3-a]quinolizine-10-carboxylic acid (3-methoxy-propyl)-methyl-amide] | 7 µM | 40% | 4 µM | 30% |  |  |  |  |
| O=C(OCC#CCN1CCCC1)c1cc(-c2ccccc2)c(=O)n2ccc3ccsc3c12 [Compound 47, 4-(Pyrrolidin-1-yl)-but-2-ynyl 7-oxo-8-phenyl-7H-thieno[2,3-a]-quinolizine-10-carboxylate methanesulphonate] | 1.5 µM | 55% | 5 µM | 55% |  |  |  |  |
| O=C(OCCn1ccnc1)c1cc(-c2ccccc2)c(=O)n2ccc3ccsc3c12 [Compound 2, 2-Imidazol-1-yl-ethyl 7-oxo-8-phenyl-7H-thieno[2,3-a]quinolizine-10-carboxylate] | 1.2 µM | 70% | 10 µM | 50% |  |  |  |  |
| O=C(ON1C(=O)CCC1=O)c1cc(-c2ccccc2)c(=O)n2ccc3ccsc3c12 [Compound 43, 2,5-Dioxo-pyrrolidin-1-yl 7-oxo-8-phenyl-7H-thieno[2,3-a]quinolizine-10-carboxylate] | 5 µM | 70% | 2 µM | 50% |  |  |  |  |
| COC(=O)c1cc(-c2ccccc2)c(=O)n2ccccc12 [Compound 33, Methyl 4-oxo-3-phenyl-4H-quinolizine-1-carboxylate] | 5 µM | 40% | 6 µM | 40% |  |  |  |  |
| 8-(2-Benzoylamino-phenyl)-7-oxo-8-p-tolyl-7H-thieno[2,3-a]-quinolizine-10- carboxylic acid (2-methoxy-ethyl)-phenyl-amide [Compound 152] |  |  |  |  | 1.5 µM | 50-90% | 1.4 µM | 100% |
| O=C(OCc1ccccn1)c1cc(-c2ccccc2)c(=O)n2ccc3ccsc3c12 [Compound 6, Pyridin-2-yl-methyl 7-oxo-8-phenyl-7H-thieno[2,3-a]quinolizine-10-carboxylate] | 0.6 µM | 75% | 3 µM | 50% |  |  |  |  |
| CN(C)C(=O)COC(=O)c1cc(-c2ccccc2)c(=O)n2ccc3ccsc3c12 [Compound 30, Dimethyl-carbamoylmethyl 7-oxo-8-phenyl-7H-thieno[2,3-a]-quinolizine-10-carboxylate] | 5 µM | 60% | 5 µM | 25% |  |  |  |  |
| CCCN(CCOC)C(=O)c1cc(-c2ccc(C(C)(C)C)cc2)c(=O)n2ccc3ccsc3c12 [Compound 108, 8-(4-tert-Butyl-phenyl)-7-oxo-7H-thieno[2,3-a]quinolizine-10-carboxylicacid (2-methoxy-ethyl)-propyl-amide] | 1 µM | 100% | 1.4 µM | 100% |  |  |  |  |
| COCCN(CCOC)C(=O)c1cc(-c2ccc(OCc3ccccc3)cc2)c(=O)n2ccc3ccsc3c12 [Compound 67, 8-(4-Benzyloxy-phenyl)-7-oxo-7H-thieno[2,3-a]quinolizine-10-carboxylic acid bis-(2-methoxy-ethyl)-amide] | 0.6 µM | 80% | 0.8 µM | 70% |  |  |  |  |
| COCCN(CCOC)C(=O)c1cc(-c2ccc(C(C)(C)C)cc2)c(=O)n2ccc3ccsc3c12 [Compound 109, 8-(4-tert-Butyl-phenyl)-7-oxo-7H-thieno[2,3-a]quinolizine-10-carboxylicacid bis-(2-methoxy-ethyl)-amide] | 0.8 µM | 100% | 7.7 µM | 100% |  |  |  |  |
| O=C(OCC#CCN1CCOCC1)c1cc(-c2ccccc2)c(=O)n2ccc3ccsc3c12 [Compound 46, 4-(Morpholin-4-yl)-but-2-ynyl 7-oxo-8-phenyl-7H-thieno[2,3-a]-quinolizine-10-carboxylate] | 1 µM | 50% | 4 µM | 70% |  |  |  |  |
| CN(CC1CCCO1)C(=O)c1cc(-c2ccccc2)c(=O)n2ccc3ccsc3c12 (stereo not shown) [Compound 24, 7-Oxo-8-phenyl-7H-thieno[2,3-a]quinolizine-10-carboxylic acid methyl-(tetrahydrofuran-2-yl-methyl)-amide] | 10 µM | 60% | 7 µM | 40% |  |  |  |  |
| CCN(CCOC)C(=O)c1cc(-c2ccccc2)c(=O)n2ccc3ccsc3c12 [Compound 20, 7-Oxo-8-phenyl-7H-thieno[2,3-a]quinolizine-10-carboxylic acid (2-methoxy-ethyl)-ethyl-amide] | 9 µM | 70% | 15 µM | 30% |  |  |  |  |
| O=C(c1cc(-c2ccc(O)cc2)c(=O)n2ccc3ccsc3c12)N1CCC[C@@H]1CO [Compound 44, 10-(2-(R)-Hydroxymethyl-pyrrolidine-1-carbonyl)-8-(4-hydroxyphenyl)-thieno[2,3-a]quinolizin-7-one] | 5 µM | 50% | 6 µM | 50% |  |  |  |  |
| COCCN(C(=O)c1cc(-c2ccccc2)c(=O)n2ccc3ccsc3c12)c1ccccc1 [Compound 23, 7-Oxo-8-phenyl-7H-thieno[2,3-a]quinolizine-10-carboxylic acid (2-methoxy-ethyl)phenyl-amide] | 3.4 µM | 100% | 6.7 µM | 100% |  |  |  |  |
| O=C(OCCN1CCOC1=O)c1cc(-c2ccccc2)c(=O)n2ccc3ccsc3c12 [Compound 5, 2-(2-Oxo-oxazolidin-3-yl)-ethyl 7-oxo-8-phenyl-7H-thieno[2,3-a]-quinolizine-10-carboxylate] | 1.2 µM | 60% | 1 µM | 25% |  |  |  |  |
| COc1cccc(-c2cc(C(=O)NCc3ccccc3)c3c4sccc4ccn3c2=O)c1 [Compound 116, 8-(3-Methoxy-phenyl)-7-oxo-7H-thieno[2,3-a]quinolizine-10-carboxylic acid benzyl-amide] | 1 µM | 60 to 80% | 0.8 µM | 100% |  |  |  |  |
| O=C(c1cc(-c2ccccc2)c(=O)n2ccc3ccsc3c12)n1ccnc1 [Compound 52, 10-(Imidazole-1-carbonyl)-8-phenyl-thieno[2,3-a]quinolizin-7-one] | 12 µM | 45% | 5 µM | 25% |  |  |  |  |
